Values of other authors, collected in patent publication US20050008633A1, “Chemical and physical modulators of bioavailability of inhaled compositions” (Advanced Inhalation Research Inc., priority 2003, published 2005).

How the values were obtained:
[1] = test system: rat alveolar epithelial cell monolayers; conditions: rat pneumocyte monolayers
[2] = intratracheal instillation in animals, absorption over many hours

Row | Substance | Jmax (i.e., maximum flux) ([1]; net absorption of intact F-Alb) | Kt (i.e., K(1)) of net absorption of intact F-Alb ([1]; simple saturable process) | bioavailability [2]
1 | F-Alb: fluorescein isothiocyanate (FITC)-labeled bovine serum albumin | ~0.15 fmol.cm^−2.s^−1 | ~1.6 µM | 
2 | immunoglobulin G |  |  | lower than 5%
